Measured values from PubChem BioAssay (NCI).
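Five compound concentrations were applied to cells in 96-well plates for 48 hours; endpoints were derived by simple linear interpolation of the resulting dose-response curve. GI50 is the concentration that inhibits growth by half. TGI: concentration producing complete growth inhibition.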

Experiments:
Assay in all cases: NCI-60 cell line screen, 48 h
786-0 renal = system: 786-0 renal
ACHN renal = system: ACHN renal
KM12 colon = system: KM12 colon
M14 melanoma = system: M14 melanoma
MALME-3M melanoma = system: MALME-3M melanoma
MOLT-4 leukemia = system: MOLT-4 leukemia
NCI-H460 lung = system: NCI-H460 lung
SF-295 CNS = system: SF-295 CNS
SK-OV-3 ovarian = system: SK-OV-3 ovarian
HCC-2998 colon = system: HCC-2998 colon

Row | SMILES | TGI (786-0 renal) [µM] | TGI (ACHN renal) [µM] | TGI (KM12 colon) [µM] | TGI (M14 melanoma) [µM] | TGI (MALME-3M melanoma) [µM] | TGI (MOLT-4 leukemia) [µM] | TGI (NCI-H460 lung) [µM] | TGI (SF-295 CNS) [µM] | TGI (SK-OV-3 ovarian) [µM] | GI50 (786-0 renal) [µM] | GI50 (ACHN renal) [µM] | GI50 (KM12 colon) [µM] | GI50 (M14 melanoma) [µM] | GI50 (MALME-3M melanoma) [µM] | GI50 (MOLT-4 leukemia) [µM] | GI50 (NCI-H460 lung) [µM] | GI50 (SF-295 CNS) [µM] | GI50 (SK-OV-3 ovarian) [µM] | TGI (HCC-2998 colon) [µM] | GI50 (HCC-2998 colon) [µM]
1 | CCOC(=O)c1cc(/C=C/C(C)=C/C(=O)OC)oc1C | > 100 | > 100 | > 100 | > 100 | > 100 | > 100 | > 100 | > 100 | > 100 | – | – | – | – | – | – | – | – | – | – | –
2 | O=C(O)C1CCCCC1C(=O)O.[NH-]C1CCC1.[NH2-].[Pt+2] (centres undefined) | 33 | 31.3 | > 100 | 27.3 | 38.6 | > 100 | > 100 | > 100 | > 100 | 15.4 | 16.4 | > 100 | 12.6 | 18.6 | 5.48 | 22.7 | 42.6 | 48.7 | – | –
3 | CCN(CC)C(=S)Oc1cc2oc(=O)cc(C)c2cc1Cl | > 100 | > 100 | > 100 | > 100 | – | > 100 | > 100 | > 100 | – | – | – | – | – | – | – | – | – | – | > 100 | –
4 | Nc1ccccc1C#C/C=C\C#Cc1ccccc1[N+](=O)[O-] | 43.2 | 19 | 70.6 | 26.9 | – | > 100 | 83.1 | 85.8 | 60.9 | 12.3 | 5.3 | 3.19 | 8.08 | – | 27.7 | 3.59 | 7.31 | 9.26 | 43.6 | 12
5 | CCC1=NC(CO)[C@H](c2ccccc2)O1 (some centres undefined) | > 100 | > 100 | > 100 | – | > 100 | – | > 100 | > 100 | – | – | – | – | – | – | – | – | – | – | – | –
6 | CCCCN(CCCC)c1c([N+](=O)[O-])c(=O)nc2ccccn12 | > 100 | > 100 | > 100 | 83.3 | > 100 | > 100 | 79.4 | – | > 100 | – | – | – | – | – | – | – | – | – | – | –
7 | COC1OC(CO)C(O)C1N (centres undefined) | > 100 | > 100 | > 100 | > 100 | > 100 | > 100 | > 100 | > 100 | > 100 | – | – | – | – | – | – | – | – | – | – | –
8 | CN(C)CC1CCC/C1=N\O (centres undefined) | > 100 | > 100 | – | > 100 | – | > 100 | > 100 | > 100 | > 100 | – | – | – | – | – | – | – | – | – | > 100 | –
9 | Nc1ccccc1C#C/C=C\C#Cc1ccccc1 | 40.9 | 75 | 20.2 | 32.4 | – | > 100 | 52.6 | 31.8 | 81.3 | 16.3 | 23.9 | 4.51 | 15.8 | – | 13.3 | 18.4 | 11.3 | 32 | – | –
10 | Cc1cc(S(=O)(=O)NC#N)c(S/C(=N\Nc2ccc([N+](=O)[O-])cc2)c2ccc(Cl)cc2)cc1Cl | > 100 | > 100 | 56.9 | > 100 | 96.3 | > 100 | > 100 | 65.5 | 57.6 | 39.6 | 34.1 | 24.6 | 54.5 | 24.4 | 19.5 | 26.7 | 22.7 | 17.9 | – | –
11 | CN(C)CCCNC(=O)c1ccc2c(c1)oc1cc3ccccc3c(=O)n12 | > 50 | 16.1 | > 50 | 35.5 | > 50 | > 50 | 39.9 | 40.5 | > 50 | > 50 | 8.33 | 19.1 | 14.3 | > 50 | 18.4 | 9.96 | 19 | 38.7 | – | –
12 | OC1(c2ccccc2)OC(C#Cc2ccccc2)(c2ccccc2)c2ccccc21 (centres undefined) | 13.5 | – | 2.99 | 3.97 | 22.7 | 8.01 | 17.7 | 18 | 5.04 | – | – | – | – | – | – | – | – | – | – | –
13 | Cc1cc(C)c(C(=O)c2no[n+]([O-])c2C(=O)c2c(C)cc(C)c(Br)c2C)c(C)c1Br | 32.8 | 34.9 | 26.4 | 25.1 | 29.9 | 20.2 | 45.8 | 33.3 | 52.3 | – | – | – | – | – | – | – | – | – | – | –
14 | O=c1cccc(C2CC(CO)C3CCCCN3C2)[nH]1 (centres undefined) | > 100 | > 100 | > 100 | > 100 | – | > 100 | > 100 | > 100 | > 100 | – | – | – | – | – | – | – | – | – | > 100 | –
15 | CC(=O)OCC(OC(C)=O)C(OC(C)=O)C(OC(C)=O)C(=O)CNn1c(-c2ccccc2Cl)nc2ccccc2c1=O (centres undefined) | > 100 | > 100 | > 100 | > 100 | > 100 | > 100 | > 100 | > 100 | > 100 | – | – | – | – | – | – | – | – | – | – | –
16 | Cc1ccccc1C1=C(C(=O)Nc2ccc(Cl)c(Cl)c2)NC(=S)NC1N (centres undefined) | > 100 | > 100 | > 100 | > 100 | > 100 | > 100 | > 100 | – | > 100 | – | – | – | – | – | – | – | – | – | – | –
